Values quoted from earlier work as cited in patent EP4302755B1, “PALBOCICLIB FORMULATION CONTAINING AN AMINO ACID” (Lotus Pharmaceutical Co., Ltd., priority 2022, dated 2024).
Where two headings read alike, the source gives them in different places.

Experiments:
[1] = at low pH (2.1-4.5)

pKa (the pyridine nitrogen): ~4.1
pKa (the secondary piperazine nitrogen): approximately 7.3
solubility [1]: water soluble
Compound: CC(=O)c1c(C)c2cnc(Nc3ccc(N4CCNCC4)cn3)nc2n(C2CCCC2)c1=O [Palbociclib]
